Assay results from article PMC10746543, “Design principles for cyclin K molecular glue degraders” (Nature Chemical Biology, 2023).
Where “and” joins values, the source holds several entries; their conditions need not be identical. Equal entries are not always repeated.

Columns and labels:
[1] = target: T1, CDK12 (Homo sapiens, UniProt Q16531+Q9NYV4); assay: Label-free quantitative mass spectrometry in MDA-MB-231 cells, CDK12; format: cell-based
T1 construct: endogenous in cells; host or cells: MDA-MB-231
Method in brief: (§1)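 MDA-MB-231 cells treated 5 h with 1 µM cyclin K degrader or DMSO. Lysates digested with LysC and trypsin, then analysed by label-free diaPASEF LC-MS on a TimsTOF Pro2 with directDIA search and MS1 precursor quantification. Protein abundances scaled and analysed with limma.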

[2] = target: CDK12–cyclin K (Homo sapiens, UniProt Q9NYV4); assay: Lanthascreen kinase binding assay, CDK12; details: for Lanthascreen raw signal, sheet CDK12: duplicates
Experimental: Lanthascreen experiments were performed using commercially available reagents (Thermo Fisher) and according to the manufacturer’s instructions.

[3] = target: T2, CDK13 (Homo sapiens, UniProt Q14004+Q16531); assay: Label-free quantitative mass spectrometry in MDA-MB-231 cells, CDK13; format: cell-based
T2 construct: endogenous in cells; host or cells: MDA-MB-231
Method in brief: as §1

[4] = system: cyclin K; assay: Label-free quantitative mass spectrometry in MDA-MB-231 cells, cyclin K; format: cell-based, human
Method in brief: as §1

[5] = system: HEK293T cells; assay: Drug sensitivity assay (CellTiter-Glo viability) with or without MLN4924 pretreatment; format: cell-based, human
Method in brief: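 Cas9-expressing HEK293T cells receive either vehicle or 100 nM MLN4924, then compounds 2 h afterwards. After three days, luminescence-based viability is measured and calculated relative to DMSO.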

[6] = label-free quantitative MS, replicate values
[7] = normalised to DMSO = 1, replicate values

T2 sequence (Q14004 whole entry): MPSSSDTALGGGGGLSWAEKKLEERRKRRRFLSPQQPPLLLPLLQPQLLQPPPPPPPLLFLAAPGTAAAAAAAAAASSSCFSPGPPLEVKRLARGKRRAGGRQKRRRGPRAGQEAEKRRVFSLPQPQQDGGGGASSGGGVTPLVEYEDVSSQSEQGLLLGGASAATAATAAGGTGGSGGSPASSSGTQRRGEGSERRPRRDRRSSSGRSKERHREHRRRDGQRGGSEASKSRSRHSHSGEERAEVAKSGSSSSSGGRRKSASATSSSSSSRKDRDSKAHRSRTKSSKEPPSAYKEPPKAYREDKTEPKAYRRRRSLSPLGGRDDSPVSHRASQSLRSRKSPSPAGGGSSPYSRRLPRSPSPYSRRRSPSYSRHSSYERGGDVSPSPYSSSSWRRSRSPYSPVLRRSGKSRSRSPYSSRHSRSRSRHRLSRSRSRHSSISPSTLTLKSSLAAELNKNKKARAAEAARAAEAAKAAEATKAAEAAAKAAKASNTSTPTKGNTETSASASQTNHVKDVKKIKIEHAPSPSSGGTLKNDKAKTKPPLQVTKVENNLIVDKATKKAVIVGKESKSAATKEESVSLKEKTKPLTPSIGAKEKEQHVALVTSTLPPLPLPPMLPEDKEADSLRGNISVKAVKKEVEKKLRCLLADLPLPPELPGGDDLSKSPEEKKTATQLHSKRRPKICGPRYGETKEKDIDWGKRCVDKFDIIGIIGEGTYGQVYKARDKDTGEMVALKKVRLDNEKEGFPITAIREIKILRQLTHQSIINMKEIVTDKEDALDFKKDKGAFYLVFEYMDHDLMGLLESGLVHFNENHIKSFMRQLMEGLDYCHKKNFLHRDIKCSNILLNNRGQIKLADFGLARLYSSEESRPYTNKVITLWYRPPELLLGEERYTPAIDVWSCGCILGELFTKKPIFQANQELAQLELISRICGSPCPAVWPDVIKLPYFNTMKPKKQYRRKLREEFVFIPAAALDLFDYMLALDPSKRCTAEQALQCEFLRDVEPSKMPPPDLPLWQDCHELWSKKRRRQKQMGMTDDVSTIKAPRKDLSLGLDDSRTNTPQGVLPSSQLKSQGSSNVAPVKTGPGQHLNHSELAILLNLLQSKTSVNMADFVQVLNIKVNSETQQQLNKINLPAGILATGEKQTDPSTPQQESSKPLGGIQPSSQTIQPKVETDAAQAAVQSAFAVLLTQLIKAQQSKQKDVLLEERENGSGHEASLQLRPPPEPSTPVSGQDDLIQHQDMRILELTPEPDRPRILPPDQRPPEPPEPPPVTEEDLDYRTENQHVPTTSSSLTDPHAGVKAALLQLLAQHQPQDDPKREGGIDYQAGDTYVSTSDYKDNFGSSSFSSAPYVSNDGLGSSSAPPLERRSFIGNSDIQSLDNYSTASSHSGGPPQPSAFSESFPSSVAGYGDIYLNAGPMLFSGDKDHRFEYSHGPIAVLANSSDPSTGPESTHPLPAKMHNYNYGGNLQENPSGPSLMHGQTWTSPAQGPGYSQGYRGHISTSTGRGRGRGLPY
T2 sequence (O75909 whole entry partner): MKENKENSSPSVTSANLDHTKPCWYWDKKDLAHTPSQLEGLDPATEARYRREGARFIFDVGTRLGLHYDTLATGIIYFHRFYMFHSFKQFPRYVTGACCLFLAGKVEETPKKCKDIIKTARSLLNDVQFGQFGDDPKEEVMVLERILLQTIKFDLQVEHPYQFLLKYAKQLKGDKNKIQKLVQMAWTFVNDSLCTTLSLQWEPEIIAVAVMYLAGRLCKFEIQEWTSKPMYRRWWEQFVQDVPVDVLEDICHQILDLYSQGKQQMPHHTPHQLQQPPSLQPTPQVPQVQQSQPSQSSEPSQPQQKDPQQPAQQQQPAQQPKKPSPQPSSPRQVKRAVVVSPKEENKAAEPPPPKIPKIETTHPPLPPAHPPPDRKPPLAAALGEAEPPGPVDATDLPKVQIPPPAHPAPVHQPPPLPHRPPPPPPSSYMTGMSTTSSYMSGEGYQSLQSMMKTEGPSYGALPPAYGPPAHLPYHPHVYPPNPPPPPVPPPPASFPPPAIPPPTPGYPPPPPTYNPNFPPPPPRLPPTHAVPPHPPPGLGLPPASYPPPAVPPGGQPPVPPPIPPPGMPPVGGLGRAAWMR
T2 sequence (Q16531 2-1140 limits assumed): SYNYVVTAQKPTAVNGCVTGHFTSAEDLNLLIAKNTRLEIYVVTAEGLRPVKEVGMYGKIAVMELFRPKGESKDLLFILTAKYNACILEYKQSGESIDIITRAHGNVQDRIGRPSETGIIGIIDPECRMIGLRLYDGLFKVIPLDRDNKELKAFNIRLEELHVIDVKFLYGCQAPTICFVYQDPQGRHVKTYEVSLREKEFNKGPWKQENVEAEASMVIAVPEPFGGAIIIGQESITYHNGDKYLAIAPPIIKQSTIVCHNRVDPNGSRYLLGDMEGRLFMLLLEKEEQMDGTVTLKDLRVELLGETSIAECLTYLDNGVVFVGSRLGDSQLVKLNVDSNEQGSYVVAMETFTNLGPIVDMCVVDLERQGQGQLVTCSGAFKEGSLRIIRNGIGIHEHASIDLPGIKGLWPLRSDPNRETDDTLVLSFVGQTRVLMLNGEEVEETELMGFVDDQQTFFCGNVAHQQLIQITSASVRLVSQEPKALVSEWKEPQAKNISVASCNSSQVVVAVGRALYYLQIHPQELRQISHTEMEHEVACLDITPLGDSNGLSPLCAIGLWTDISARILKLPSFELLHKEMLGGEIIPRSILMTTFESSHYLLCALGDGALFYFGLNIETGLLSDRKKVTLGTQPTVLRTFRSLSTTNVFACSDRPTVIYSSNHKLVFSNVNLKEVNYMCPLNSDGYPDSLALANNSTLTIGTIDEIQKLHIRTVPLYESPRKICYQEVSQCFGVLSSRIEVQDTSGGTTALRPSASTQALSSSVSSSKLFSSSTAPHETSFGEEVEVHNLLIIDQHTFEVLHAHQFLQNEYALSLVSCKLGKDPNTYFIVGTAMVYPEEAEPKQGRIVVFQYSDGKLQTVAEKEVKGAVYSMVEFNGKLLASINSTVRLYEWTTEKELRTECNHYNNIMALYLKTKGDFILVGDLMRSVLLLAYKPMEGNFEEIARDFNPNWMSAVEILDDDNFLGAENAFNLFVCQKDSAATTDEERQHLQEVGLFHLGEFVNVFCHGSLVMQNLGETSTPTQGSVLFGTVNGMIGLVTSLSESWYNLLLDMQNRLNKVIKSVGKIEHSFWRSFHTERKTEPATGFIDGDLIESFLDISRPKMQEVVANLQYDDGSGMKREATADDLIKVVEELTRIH
T1 sequence (Q9NYV4 whole entry): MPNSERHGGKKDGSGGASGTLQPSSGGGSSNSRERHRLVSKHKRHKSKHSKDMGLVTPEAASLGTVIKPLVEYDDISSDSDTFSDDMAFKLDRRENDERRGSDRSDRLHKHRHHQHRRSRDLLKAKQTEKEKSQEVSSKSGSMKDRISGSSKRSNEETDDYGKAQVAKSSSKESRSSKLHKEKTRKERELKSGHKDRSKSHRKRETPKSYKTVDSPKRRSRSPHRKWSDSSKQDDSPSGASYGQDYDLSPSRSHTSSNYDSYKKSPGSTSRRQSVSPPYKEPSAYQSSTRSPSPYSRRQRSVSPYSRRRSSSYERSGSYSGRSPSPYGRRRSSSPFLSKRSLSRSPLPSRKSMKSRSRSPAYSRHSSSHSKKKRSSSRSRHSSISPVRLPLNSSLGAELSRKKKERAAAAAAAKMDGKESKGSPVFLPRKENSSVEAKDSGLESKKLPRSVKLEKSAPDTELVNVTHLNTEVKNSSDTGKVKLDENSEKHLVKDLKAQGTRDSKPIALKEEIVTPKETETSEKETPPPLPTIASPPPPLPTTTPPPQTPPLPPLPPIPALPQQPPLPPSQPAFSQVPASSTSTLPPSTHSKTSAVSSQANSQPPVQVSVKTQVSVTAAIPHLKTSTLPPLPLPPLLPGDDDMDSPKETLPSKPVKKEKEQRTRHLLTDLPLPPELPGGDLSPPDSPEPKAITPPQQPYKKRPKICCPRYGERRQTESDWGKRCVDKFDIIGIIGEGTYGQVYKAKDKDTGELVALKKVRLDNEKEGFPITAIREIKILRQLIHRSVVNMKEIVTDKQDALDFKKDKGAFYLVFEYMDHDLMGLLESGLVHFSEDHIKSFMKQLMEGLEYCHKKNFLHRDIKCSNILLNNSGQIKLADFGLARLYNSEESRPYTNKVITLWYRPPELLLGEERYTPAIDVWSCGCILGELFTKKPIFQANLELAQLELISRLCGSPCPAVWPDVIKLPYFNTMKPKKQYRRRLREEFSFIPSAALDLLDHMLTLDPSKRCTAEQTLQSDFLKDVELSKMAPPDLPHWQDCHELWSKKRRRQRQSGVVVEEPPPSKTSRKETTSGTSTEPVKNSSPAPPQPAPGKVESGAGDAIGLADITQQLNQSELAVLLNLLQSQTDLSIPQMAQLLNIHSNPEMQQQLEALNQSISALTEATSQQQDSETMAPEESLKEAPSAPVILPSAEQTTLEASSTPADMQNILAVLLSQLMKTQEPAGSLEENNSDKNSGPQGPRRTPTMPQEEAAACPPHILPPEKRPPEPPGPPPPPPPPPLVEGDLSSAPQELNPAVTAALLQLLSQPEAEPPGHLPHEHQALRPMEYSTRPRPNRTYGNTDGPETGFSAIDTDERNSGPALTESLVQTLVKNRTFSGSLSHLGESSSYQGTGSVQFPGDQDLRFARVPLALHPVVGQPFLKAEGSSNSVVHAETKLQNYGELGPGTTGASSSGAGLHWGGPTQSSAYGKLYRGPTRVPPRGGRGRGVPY
T1 sequence (O75909 whole entry partner): as the sequence (O75909 whole entry partner) above
T1 sequence (Q16531 2-1140 limits assumed): as the sequence (Q16531 2-1140 limits assumed) above

C[C@H](C(=O)Nc1nc2ccccc2[nH]1)N1Cc2ccccc2C1=O [compound 919278]
CDK12 peptide count [1, 6]: 562.617 and 625.634
CDK12 peptide count (DMSO-normalised) [1, 7]: 0.6251 and 0.6462
IC50 ([2]; Lanthascreen, average, Extended Data Fig. 8, read-out: CDK12 IC50): 1340 nM
Lanthascreen raw signal, sheet CDK12 ([2]; compound 0.038147 nM, series r13): 0.01141 and 0.01078
Lanthascreen raw signal, sheet CDK12 ([2]; compound 0.038147 nM, series r49): 0.007974 and 0.007894
Lanthascreen raw signal, sheet CDK12 ([2]; compound 0.152588 nM, series r13): 0.01172 and 0.01127
Lanthascreen raw signal, sheet CDK12 ([2]; compound 0.152588 nM, series r49): 0.009529 and 0.009772
Lanthascreen raw signal, sheet CDK12 ([2]; compound 0.610352 nM, series r13): 0.01156 and 0.01218
Lanthascreen raw signal, sheet CDK12 ([2]; compound 0.610352 nM, series r49): 0.00969 and 0.009867
Lanthascreen raw signal, sheet CDK12 ([2]; compound 9.76563 nM, series r13): 0.01168 and 0.01068
Lanthascreen raw signal, sheet CDK12 ([2]; compound 9.76563 nM, series r49): 0.008416 and 0.00874
Lanthascreen raw signal, sheet CDK12 ([2]; compound 39.0625 nM, series r13): 0.01187 and 0.01164
Lanthascreen raw signal, sheet CDK12 ([2]; compound 39.0625 nM, series r49): 0.009257 and 0.00975
Lanthascreen raw signal, sheet CDK12 ([2]; compound 156.25 nM, series r13): 0.01128 and 0.01164
Lanthascreen raw signal, sheet CDK12 ([2]; compound 156.25 nM, series r49): 0.009429 and 0.008734
Lanthascreen raw signal, sheet CDK12 ([2]; compound 625 nM, series r13): 0.01093 and 0.01047
Lanthascreen raw signal, sheet CDK12 ([2]; compound 625 nM, series r49): 0.007601 and 0.007861
Lanthascreen raw signal, sheet CDK12 ([2]; compound 2500 nM, series r13): 0.009465 and 0.008988
Lanthascreen raw signal, sheet CDK12 ([2]; compound 2500 nM, series r49): 0.006693 and 0.006957
Lanthascreen raw signal, sheet CDK12 ([2]; compound 10000 nM, series r13): 0.008087 and 0.007713
Lanthascreen raw signal, sheet CDK12 ([2]; compound 10000 nM, series r49): 0.006488 and 0.006166
CDK13 peptide count [3, 6]: 457.834 and 405.628
CDK13 peptide count (DMSO-normalised) [3, 7]: 0.6811 and 0.6233
cyclin K abundance (label-free MS) ([4]; individual replicates, sheet EDF7): 525.324 and 551.956
cyclin K abundance (label-free MS) [4, 6]: 525.324 and 551.956
CCNK peptide count (DMSO-normalised) [4, 7]: 0.287 and 0.307
average CCNK peptide count ([4]; sheet EDF7): 538.64
viability assay signal (normalized) ([5]; 2 nM, + MLN4924): 1.029 and 0.9647
viability assay signal (normalized) ([5]; 2 nM, without MLN4924): 1.055 and 1.0418
viability assay signal (normalized) ([5]; 4.69 nM, + MLN4924): 1.105 and 1.018
viability assay signal (normalized) ([5]; 4.69 nM, without MLN4924): 1.004 and 1.008
viability assay signal (normalized) ([5]; 11 nM, + MLN4924): 1.0606 and 0.9151
viability assay signal (normalized) ([5]; 11 nM, without MLN4924): 1.048 and 1.059
viability assay signal (normalized) ([5]; 25.7 nM, + MLN4924): 1.025 and 1.119
viability assay signal (normalized) ([5]; 25.7 nM, without MLN4924): 0.893 and 1.0689
viability assay signal (normalized) ([5]; 141 nM, + MLN4924): 1.103 and 1.1762
viability assay signal (normalized) ([5]; 141 nM, without MLN4924): 1.0013 and 1.019
viability assay signal (normalized) ([5]; 331 nM, + MLN4924): 1.1 and 1.102
viability assay signal (normalized) ([5]; 331 nM, without MLN4924): 0.8356 and 0.898
viability assay signal (normalized) ([5]; 4270 nM, + MLN4924): 0.7328 and 0.6837
viability assay signal (normalized) ([5]; 4270 nM, without MLN4924): 0.374 and 0.3286
viability assay signal (normalized) ([5]; 10000 nM, + MLN4924): 0.484 and 0.4101
viability assay signal (normalized) ([5]; 10000 nM, without MLN4924): 0.3001 and 0.3205
EC50 ([5]; Homo sapiens, HEK-293T, Supplementary Table 2, HEK293T viability, 72 h, compound alone, read-out: Cellular assays EC50): 559 nM
Toxicity rescue ([5]; Supplementary Table 2, MLN4924-mediated cytotoxicity rescue, 10 µM used where n.d.): 749%
